# Laboratory results reported in ChEMBL document CHEMBL3351890, “Azapropellanes with anti-influenza a virus activity” (ACS Med Chem Lett, 2014).
# The source made the active and inactive calls. The calls are words filed in the database; no cut-off is given here.
# Assays:
# [1] = system: Matrix protein 2 (Influenza A virus), P06821 [V27A]; test: Inhibition of influenza A virus wild type M2 proton channel V27A mutant expressed in Xenopus oocytes at 100 uM by two-electrode voltage clamp analysis; assay type: cell-based
# [2] = system: Matrix protein 2 (Influenza A virus), P06821 [withheld]; test: Inhibition of influenza A virus wild type M2 proton channel S31N mutant expressed in Xenopus oocytes at 100 uM by two-electrode voltage clamp analysis; assay type: cell-based
SMILES,inhibition [1],inhibition [2]
C=C1CC23CNCC2(C1)CC(=C)C3 (centres undefined),inactive,inactive
C1=CC[C@]23CCCC[C@@]2(C1)CNC3,inactive,inactive
C=C1CC23CCCC2(CNC3)C1 (centres undefined),inactive,inactive
C=C1CC23CC=CCC2(CNC3)C1 (centres undefined),inactive,inactive
C1CC23CCCC2(C1)CNC3 (centres undefined),inactive,inactive
CC1CC23CC(C)CC2(C1)CN(C(=N)N)C3 (centres undefined),inactive,inactive
CC1CC23CNCC2(C1)CC(C)C3 (centres undefined),inactive,inactive
